Results from patent US9567623B2, “Coelenterazine analogs” (JNC CORPORATION, priority 2013, dated 2017).

What was measured:
[1] = molecular target: T1, nanoKAZ (mutated catalytic 19 kDa domain of Oplophorus luciferase) (Oplophorus gracilirostris, UniProt Q9GV45, A31E/A60N/A81I/F95D/I117V/K70R/L54V/L99Q/M102K/N193R/P142E/Q151K/Q38R/Q45L/V71I/Y165I); assay: Luminescence activity of secreted codon-optimized nanoKAZ domain protein with coelenterazine analogs as substrates; format: biochemical
T1 construct: secretory signal peptide of Gaussia luciferase (GLsp) (N, cleaved yes); made in house; host or cells: CHO-K1 transiently transfected with pcDNA3-GLsp-nanoKAZ; unpurified culture medium used as the enzyme solution
T1 sequence (Q9GV45 other isoform, or with tags, fused parts or gaps with the stated changes): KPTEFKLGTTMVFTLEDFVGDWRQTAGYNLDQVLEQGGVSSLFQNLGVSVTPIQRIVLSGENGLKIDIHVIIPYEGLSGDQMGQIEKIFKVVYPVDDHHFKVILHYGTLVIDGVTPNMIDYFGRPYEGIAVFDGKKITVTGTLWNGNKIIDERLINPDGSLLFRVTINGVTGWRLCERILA
Description: The Chinese hamster ovary-derived cell line CHO-K1 was cultured in Ham's F-12 medium (manufactured by Wako Pure Chemical Industries, Ltd.) containing 10% (v/v) calf fetal serum (manufactured by Biowest Inc.), and cultured in DMEM (manufactured by Wako Pure Chemical Industries, Ltd.) containing 10% (v/v) calf fetal serum (manufactured by Biowest Inc.). The respective cells were seeded in a 6-well culture plate (n=2) with 1×10^5 cells/well/2 mL medium, and cultured in an incubator at 37° C. in 5% CO2, respectively. After 24 hours, the purified pcDNA3-GLsp-nanoKAZ plasmid was transfected into CHO-K1 cells using a FuGene HD Transfection Kit (manufactured by Promega Corp.), which was used in the subsequent experiment. Specifically, 1 μg of the pcDNA3-GLsp-nanoKAZ expression vector and 3 μL of FuGene HD were added to 100 μL of medium, which was allowed to stand at room temperature for 15 minutes. Then 100 μL of the DNA-FuGene complex solution was added to the cells in the 6 wells. After incubation for 48 hours, the culture medium was recovered and used as the secreted nanoKAZ enzyme solution for assay.
The enzyme solution, 5 μL, for assay obtained in EXAMPLE 4 (2) was added to 100 pt of 50 mM Tris-HCl (pH 7.6)-10 mM EDTA (Wako Pure Chemical Industries) containing 1 μg each of various coelenterazine analogs to initiate the luminescence reaction. The luminescence activity was determined by a luminometer (AB2200, manufactured by Atto Company) for 60 seconds and expressed by the maximum luminescence intensity (Imax) and the relative light units (du) of the lumimescence intensity integrated for 60 seconds.
The coelenterazine analogs used for substrate specificity analysis except for the analog described in EXAMPLE 1 were synthesized by the methods as described in the journals below, respectively. Specifically, bis-coelenterazine was synthesized by the method described in Nakamura et al. (1997) Tetrahedron Lett. 38: 6405-6406; Furimazine (Compound No. 3939 referred to in the journal) and C6d-coelenterazine (Compound No. 3840 referred to in the journal) by the method described in Hall et al. (2012) ACS Chem. Biol. […]; and the C2-coelenterazine analogs by the method described in Inouye et al (2010) Anal. Biochem. 407: 247-252. The enzyme solution of the culture medium in which nanoKAZ was secreted by the method as described in EXAMPLE 4 (2) was used for determining the luminescence activity with coelenterazine or its analogs. […] As a result, the luminescence substrates which can markedly improve the luminescence intensity and the amount of the integrated luminescence intensity to compare with furimazine are bis-coelenterazine and C6d-f-coelenterazine, showing a continuous luminescence without a decay of the luminescence intensity.

[2] = molecular target: T2, Catalytic 19 kDa domain of Oplophorus luciferase (Oplophorus gracilirostris, UniProt Q9GV45); assay: Substrate specificity of various luciferases: catalytic 19 kDa domain of Oplophorus luciferase; format: biochemical, Oplophorus grachlorostris; details: relative to coelenterazine = 100
T2 construct: The catalytic 19 kDa domain of Oplophorus luciferase was produced by the method described in; made in house
T2 sequence (Q9GV45 28-196): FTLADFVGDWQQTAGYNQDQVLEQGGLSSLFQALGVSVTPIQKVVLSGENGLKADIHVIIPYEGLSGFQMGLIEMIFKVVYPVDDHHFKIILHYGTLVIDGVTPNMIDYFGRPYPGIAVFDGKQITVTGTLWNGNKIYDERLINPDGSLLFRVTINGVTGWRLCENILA
Description: (§1) The preparation of various luciferases and the determination of their luminescence activities were carried out in accordance with the methods as previously reported. The catalytic 19 kDa domain of Oplophorus luciferase was produced by the method described in Inouye S. & Sasaki S. (2007) Protein Express. Purif. 56, 261-268, Gaussia luciferase by the method described in Inouye S & Sahara Y. (2008) Biochem. Biophys. Res. Commun. 368, 600-605, Renilla luciferase and Renilla luciferase 547 by the method described in Inouye S. et al. (2013) Protein Express. Purif. 88, 150-156, and aequorin by the method described in Inouye S et al. (2010) Anal. Biochem. 407, 247-252, respectively, and used.

Gaussia luciferase = assay: Substrate specificity of various luciferases: Gaussia luciferase; format: biochemical; details: relative to coelenterazine = 100
Description: as §1

Renilla luciferase = molecular target: T3, Renilla luciferase (Renilla reniformis, UniProt P27652); assay: Substrate specificity of various luciferases: Renilla luciferase; format: biochemical; details: relative to coelenterazine = 100
T3 construct: made in house
T3 sequence (P27652 1-311): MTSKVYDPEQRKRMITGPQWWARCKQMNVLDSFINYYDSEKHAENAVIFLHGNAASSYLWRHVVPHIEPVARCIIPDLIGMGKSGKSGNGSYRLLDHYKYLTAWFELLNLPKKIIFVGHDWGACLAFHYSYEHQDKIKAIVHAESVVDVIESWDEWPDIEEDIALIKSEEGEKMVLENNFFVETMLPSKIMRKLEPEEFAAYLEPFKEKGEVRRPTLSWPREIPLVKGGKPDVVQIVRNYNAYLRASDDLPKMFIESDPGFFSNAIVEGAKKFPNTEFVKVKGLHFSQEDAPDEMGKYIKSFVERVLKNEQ
Description: as §1

Renilla luciferase 547 = assay: Substrate specificity of various luciferases: Renilla luciferase 547; format: biochemical; details: relative to coelenterazine = 100
Description: as §1

Aequorin = molecular target: T4, Aequorin (Aequorea victoria, UniProt P07164); format: biochemical, jellyfish; details: relative to coelenterazine = 100
T4 construct: made in house
T4 sequence (P07164 8-196): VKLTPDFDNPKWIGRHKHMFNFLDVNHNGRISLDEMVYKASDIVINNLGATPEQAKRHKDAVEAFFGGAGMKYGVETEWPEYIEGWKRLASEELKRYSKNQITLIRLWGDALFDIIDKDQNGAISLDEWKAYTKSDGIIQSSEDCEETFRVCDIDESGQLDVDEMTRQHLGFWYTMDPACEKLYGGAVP
Description: as §1

[3] = Stability of coelenterazine analogs in aqueous solution (HPLC); format: physicochemical; details: 30 mM Tris-HCl (pH 7.6)
Description: The stability of coelenterazine analogs in an aqueous solution was examined by dissolving 10 μg of coelenterazine analogs in 0.5 mL of 30 mM Tris-HCl (pH 7.6), allowing the solution to stand at 37° C. for 22 hours, and then the degradation of coelenterazine analogs was determined by HPLC analysis. The HPLC analysis was performed by the modified method as described in Inouye S. et al. (2013) Protein Express. Purif. 88, 150-156.

Substance: bis-coelenterazine
- Luminescence pattern (decay) ([1]; FIG. 3, recombinant nanoKAZ): did not exhibit a rapid decay
- Relative maximum luminescence intensity (Imax) ([1]; relative to coelenterazine = 1.0, 1 μg substrate, 50 mM Tris-HCl (pH 7.6)-10 mM EDTA, 60 seconds): 10.3
- Relative amount of integrated luminescence intensity (1 min.) ([1]; relative to coelenterazine = 1.0, integrated for 60 seconds): 9.7
- Maximum Luminescence Intensity (Imax, %) [2]: 108%
- Relative Amount of Integrated Luminescence Intensity (1 min, %) [2]: (102) %
- Maximum Luminescence Intensity (Imax, %) (Gaussia luciferase): 0%
- Relative Amount of Integrated Luminescence Intensity (1 min, %) (Gaussia luciferase): (0) %
- Maximum Luminescence Intensity (Imax, %) (Renilla luciferase): 0.04%
- Relative Amount of Integrated Luminescence Intensity (1 min, %) (Renilla luciferase): (0.03) %
- Maximum Luminescence Intensity (Imax, %) (Renilla luciferase 547): 0.07%
- Relative Amount of Integrated Luminescence Intensity (1 min, %) (Renilla luciferase 547): (0.08) %
- Maximum Luminescence Intensity (Imax, %) (Aequorin): 0.01%
- Relative Amount of Integrated Luminescence Intensity (1 min, %) (Aequorin): (0.01) %
- Residual Ratio of Coelenterazine Analog (%) ([3]; incubation time at 37° C. 0 hour): 100%
- Residual Ratio of Coelenterazine Analog (%) ([3]; incubation time at 37° C. 22 hours): 38%
